From patent publication US11992011B2, “Compounds for controlling plant pathogens” (VIB VZW, priority 2017, dated 2024) come the findings set out here.

The test system of data set [1] is Fusarium oxysporum (isolate Foc26). Kind of data set: Onion seedling emergence with PA seed coating, Fusarium oxysporum (Example 12). In kind it is in vivo. The following applies: onion seeds with 300 μM PA coating vs mock coating. As for the experimental part: (§1) Seed coatings were applied by dipping seeds in a coating solution containing 20 g/I high viscosity carboxymethylcellulose (Sigma-Aldrich, Saint Louis, USA) in distilled water as well as 300 μM of the target compound. Seeds were then dried overnight at room temperature.
(§2) Onion seeds were coated with a 300 μM PA solution as outlined in the chemical treatments section. F. oxysporum (isolate Foc26), F. solani (isolate Fso18) and F. proliferatum (isolate Fpr18) were originally extracted from Vietnamese onion fields. Inoculum was obtained as described in the fungal culture section. The inoculum was diluted to a concentration of 1.0×10^7 spores per ml with sterile PBS buffer. The coated seeds were then soaked in the spore solution for one hour. To avoid excessive PA leaching from the PA coating, 100 μM of PA was added to the spore solution.
(§3) After soaking in the PA solution, seeds were left to dry for thirty minutes. Twenty seeds were then sowed per pot in potting soil; three pots were used per treatment and per fungal isolate (for a total of 60 seeds per treatment-isolate combination). The pots were covered in cling film and left on a window sill at room temperature. After eight and ten days, the number of germinated seedlings per pot was counted.
(§4) Germination experiments were analyzed by fitting a three-parameter log-logistic model as implemented in the R drc package.

For data set [2], the system named is tomato. Kind of data set: Phytotoxicity of foliar spray in uninfected tomato (Example 1). The data set is classed as in vivo, Solanum lycopersicum. The following applies: 500 μM foliar spray, 8 plants per treatment. The method, then:
(§5) Tomato seeds, cv. Moneymaker (Vreeken's Zaden, Dordrecht, the Netherlands) were sown on autoclaved potting soil coveed with polyethylene film and placed at 24° C. for eight days. Seedlings were then transferred to individual SAP-filled pots and placed in a growth chamber at 24° C. Plants were watered three times per week with 25 ml of quarter-strength Hoagland solution for the first two weeks and half-strength thereafter.
(§6) Unless otherwise mentioned, all chemicals for nematode experiments were applied as a foliar spray consisting of the target compound at a concentration of 300 μM together with 0.1% (v/v) Tween 20 surfactant (Calbiochem) in distilled water. Again unless otherwise mentioned, all treatments for the nematode experiments were carried out three times: one and eight days before pathogen inoculation and seven days after pathogen inoculation. In all cases, plants were sprayed until run-off with an atomizer.
(§7) Short-term phytotoxicity experiments (Example 1) were analyzed using non-parametric methods. For each variable, overall significance was determined using the Kruskal-Wallis test (Kruskal and Wallis, 1952), followed by a posthoc Conover-Iman test (Conover and Iman, 1981) with Hommel multiplicity correction (Hommel, 1988) if the Kruskal-Wallis test was significant. When only two groups were present, the Wilcoxon-Mann-Whitney test was used (Mann and Whitney, 1947).
(§8) To test whether C4H inhibitors induce phytotoxic effects in crops, uninfected tomato, wheat and carrot were treated with piperonylic acid (PA), 4-iodobenzoic acid (4-IBA) and piperic acid (PIA) at a concentration of 500 μM through foliar application. At harvest, leaf area (or shoot length in the case of wheat) and primary root length were recorded. The BBCH developmental stage (Lancashire et al., 1991), a measure of developmental retardation, was used to test for effects on development. Finally, the presence of visible signs of phytotoxicity such as chlorosis, discoloration or necrosis was recorded.

Data set [3] has as its system Fusarium solani (isolate Fso18). Kind of data set: Onion seedling emergence with PA seed coating, Fusarium solani (Example 12). In kind it is in vivo. Particulars: onion seeds with 300 μM PA coating vs mock coating. As for the experimental part:
as §1, §2, §3, §4

In data set [4] the test system is carrot. Kind of data set: Phytotoxicity of foliar spray in uninfected carrot (Example 1). The following applies: 500 μM foliar spray, 8 plants per treatment. The data set is classed as in vivo, Daucus carota. The method, then: Carrot seeds, cv. Nantes 2 (Vreeken's Zaden, Dordrecht, the Netherlands) were germinated on wet paper for seven days at 21° C. After germination, seedlings were transferred to individual pots filled with potting soil and placed in a growth chamber at 21° C.
as §6, §7, §8

Data set [5] deals with Meloidogyne incognita. Kind of data set: Meloidogyne incognita infection in tomato cv. Moneymaker (Example 7). In kind it is in vivo. The method, then: as §5
M. incognita was extracted from infected tomato plants (cv. Moneymaker) roots grown in potting soil at 24° C. Nematodes were collected, counted and inoculated using the same procedure described for M. graminicola above.
as §6
Infection experiments with M. incognita were performed in the same manner as those with M. graminicola, except that plants were harvested 31 days after inoculation instead of 14 days. At this point, the plants were phenotyped by measuring the root length with a ruler and in some experiments by measuring leaf area using the EasyLeafArea software (Easlon and Bloom, 2014) and by determining shoot dry mass after 72 hours of drying in an oven at 70° C. Galls were stained and counted as described above.
Additionally, a possible dose response effect was investigated by applying PA at three concentrations: 100, 400 and 700 μM.

The subject of data set [6] is Pseudomonas syringae DC3000. Kind of data set: Pseudomonas syringae toxicity experiment in liquid culture (Example 21). The following applies: 100 μM, twenty-four hours of continuous exposure. In kind it is cell-based. The method, then: A glycerol stock of P. syringae pv. DC3000 kept at−80° C. was spotted on petri dishes containing King's B agar amended with 75 μg/ml rifampicine (Duchefa Biochemie, Haarlem, the Netherlands). The plates were incubated in the dark at 28° C. for one week. At this time point, glass test tubes containing 5 ml of liquid King's B each (without rifampicin) were inoculated with cells from the plates and placed on an orbital shaker at 200 rpm for 24 hours at 28° C. 100 μl of this liquid inoculum was transferred to fresh glass test tubes containing 5 ml of liquid King's B each (without rifampicin) amended either with 100 μM of PA or a corresponding control, which were placed on an orbital shaker at 200 rpm for 24 hours at 28° C. At this time point, the cells were diluted ten-fold with liquid King's B medium and the OD600 of the resulting suspension was determined using a spectrophotometer (BioRad SmartSpec Plus), with sterile King's B as a blanc.
Prior to inoculation, the effect of piperonylic acid on Pseudomonas syringae DC3000 itself was also verified by growing the bacteria on liquid culture amended with piperonylic acid or a corresponding control and measuring the OD600 (as described in the materials and methods section).

Data set [7] relates to OsGNS5. In words: qRT-PCR in rice roots, OsGNS5 (Example 20). The data set is classed as in vivo, Oryza sativa. Particulars: rice cv. Bomba root tissue; same samples as Example 19. The method, then:
After quality control, qPCR was carried out.
To test whether other defense hormones might be involved, genes responsive to jasmonic acid (the biosynthesis gene OsAOS2) and auxin (the auxin conjugating enzyme OsGH3.1) were investigated. Moreover, the callose-degrading enzyme OsGNS5, downregulation of which is associated with basal defense, was also investigated. The qRT-PCR analysis was performed on the same samples used in the previous Example.
A general note: In qPCR the cycle at which signal appears reflects the starting amount.

Regarding `O=C(O)c1ccc2c(c1)OCO2` [PA, Piperonylic acid], the results for the “improvement of seedling emergence” value in data set [1] and in data set [3] were “+42%” and “+27%”, respectively. Also, the “Leaf Area” value amounted to 11.83 ± 1.70 cm^2 in data set [2] (mean ± standard deviation) and 6.07 ± 2.12 cm^2 in data set [4] (mean ± standard deviation). This compound came in with a Root length in data set [2] (mean ± standard deviation) of 7.95 ± 1.83 cm. Also, the BBCH stage in data set [2] (median ± interquartile range) was 102 ± 1.0; in data set [4] (median ± interquartile range) it was 13 ± 0. In addition, in data set [5] (100, 400 and 700 μM foliar spray), the “negative effects on growth or development of the tomato plants” value is given as “no negative effects on growth or development”. The “Percent difference of mean number of galls per root system, PA100 vs. PA400” value in data set [5] (tomato, 100 μM compared with 400 μM) was −9%. The “Percent difference of mean number of galls per root system, PA100 vs. PA700” value in data set [5] (tomato, 100 μM compared with 700 μM) was −2%. For the same compound, the “Percent difference of mean number of galls per root system, PA400 vs. PA700” value in data set [5] (tomato, 400 μM compared with 700 μM) is listed as “+11%”. Besides, the “Percent difference of mean number of galls per root system, PA100 vs. CON” value in data set [5] (tomato, foliar spray 100 μM) is on record as −54%. Besides, the “Percent difference of mean number of galls per root system, PA400 vs. CON” value in data set [5] (tomato, foliar spray 400 μM) is listed as −50%. Moreover, the “Percent difference of mean number of galls per root system, PA700 vs. CON” value in data set [5] (tomato, foliar spray 700 μM) is −55%. In data set [6], the “effect on bacterial growth” value is recorded as “no effect on bacterial growth”. This compound came in with an OD600 in data set [6] (ten-fold diluted culture, printed 0.737 vs. 0.757) of 0.737. Further, the “Fold change vs. control, OsGNS5 expression” value in data set [7] is recorded as 0.41.
